# From US20020137929A1, “1 - (3-heterocyclylphenyl) isothiourea, -isourea, -guanidine and -amidine herbicidal agents” (Intellectual Property Department, BASF Aktiengesellschaft, priority 1998, published 2002)
# Legend:
# [1] = system: CHEAL (Lambsquarters, Common); assay: Postemergence herbicidal evaluation; type: in vivo, Chenopodium album
# Procedure, shortened: (§1)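 Rate range approx. 0.0156–0.500 kg/ha. Foliar application at 40 psi to ~2-week seedlings; surfactant 0.5% TWEEN 20 in 50/50 acetone/water. Evaluation 4–5 wk post-treatment by 0–9 visual injury score, means of replicate tests.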
# [2] = system: CYPSE (Flatsedge); assay: Postemergence weed control under flooded paddy conditions; type: in vivo, Cyperus serotinus; conditions: postemergence weeds, 3-4 weeks after treatment
# Procedure, shortened: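 With weeds 3 to 5 cm tall and rice at the 1.5 to 2.5 leaf stage, containers were flooded and water held 1.5 to 3 cm above soil. Compounds in 50/50 v/v aqueous/acetone went into the flood water at about 0.0313 to 0.500 kg/ha a.i. Effects were visually rated 0–9 against controls after three to four weeks in the greenhouse.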
# [3] = system: TRZAWR (Wheat, Winter, cv Riband); assay: Preemergence herbicidal evaluation; type: in vivo, Triticum aestivum; conditions: rated 4-5 weeks after treatment
# Procedure, shortened: (§2)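 Rating at 4–5 wk post-spray on a 0–9 visual scale vs control. Application: aqueous acetone, ~0.0156–0.500 kg/ha, to soil surface after seeding, preemergence.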
# [4] = system: SAGPY (Arrowhead (Pygmaea)); assay: Preemergence weed control under flooded paddy conditions; type: in vivo, Sagittaria pygmaea; conditions: rated 3-4 weeks after treatment
# Procedure, shortened: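 Using flooded silt loam (water 1.5 to 3 cm deep), seeds sown in the top 0.5 cm were exposed preemergence to compound pipetted into the flood at about 0.0313 to 0.500 kg/ha. Effects were scored 0-9 by eye three to four weeks later.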
# [5] = system: ORYSAT (Rice, Tebonnet); assay: Preemergence herbicidal evaluation; type: in vivo, Oryza sativa, (L.) Tebonnet; conditions: rated 4-5 weeks after treatment
# Procedure, shortened: as §2
# [6] = system: CASOB (Sicklepod); assay: Postemergence herbicidal evaluation; type: in vivo, Cassia obtusifolia
# Procedure, shortened: as §1
# [7] = system: CYPIR (Rice Flatsedge); assay: Preemergence weed control under flooded paddy conditions; type: in vivo, Cyperus iria; conditions: rated 3-4 weeks after treatment
# Procedure, shortened: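 Silt loam, seeds in top 0.5 cm; flood held 1.5-3 cm; test cpd as acetone/water 50/50 into flood water, ~0.0313-0.500 kg/ha a.i.; greenhouse 3-4 wk; visual 0-9 score vs control.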
# [8] = system: GALAP (Galium); assay: Preemergence herbicidal evaluation; type: in vivo, Galium aparine; conditions: rated 4-5 weeks after treatment
# Procedure, shortened: as §2
# [9] = system: ECHCG (Barnyardgrass); assay: Postemergence herbicidal evaluation; type: in vivo, Echinochloa crus-galli
# Procedure, shortened: as §1
# [10] = system: GLXMAW (Soybean, Williams); assay: Preemergence herbicidal evaluation; type: in vivo, Glycine max, (L.) Merr. cv Williams; conditions: rated 4-5 weeks after treatment
# Procedure, shortened: as §2
# [11] = system: ORYSAT (Rice, Tebonnet); assay: Postemergence herbicidal evaluation; type: in vivo, Oryza sativa, (L.) Tebonnet
# Procedure, shortened: as §1
# [12] = system: ZEAMX (Corn, Field); assay: Preemergence herbicidal evaluation; type: in vivo, Zea mays; conditions: rated 4-5 weeks after treatment
# Procedure, shortened: as §2
# [13] = system: SETVI (Foxtail, Green); assay: Preemergence herbicidal evaluation; type: in vivo, Setaria viridis; conditions: rated 4-5 weeks after treatment
# Procedure, shortened: as §2
structure (smiles),measurement,setting,value
"CCOC(=O)CCN1C(=O)CSC1=Nc1cc(-n2c(=O)cc(C(F)(F)F)n(C)c2=O)c(Cl)cc1Cl [Compound 32, Ethyl 2-{{2,4-dichloro-5-[3,6-dihydro-3-methyl-2,6-dioxo-4-(trifluoromethyl)-1(2H)-pyrimidinyl]-phenyl}imino}-4-oxo-3-thiazolidinepropionate]",Postemergence herbicidal rating CHEAL,[1]; Rate 0.0158 kg/ha,3.0
same,Postemergence herbicidal rating CHEAL,[1]; Rate 0.0313 kg/ha,0.0
same,Postemergence herbicidal rating CHEAL,[1]; Rate 0.0625 kg/ha,2.0
same,Postemergence herbicidal rating CHEAL,[1]; Rate 0.1250 kg/ha,6.0
same,Herbicidal rating CYPSE,[2]; rate 0.1250 kg/ha,0.0
same,Herbicidal rating CYPSE,[2]; rate 0.2500 kg/ha,0.0
same,Preemergence herbicidal rating TRZAWR,[3]; rate 0.0156 kg/ha,0.0
same,Preemergence herbicidal rating TRZAWR,[3]; rate 0.0313 kg/ha,0.0
same,Preemergence herbicidal rating TRZAWR,[3]; rate 0.0625 kg/ha,0.0
same,Preemergence herbicidal rating TRZAWR,[3]; rate 0.1250 kg/ha,0.0
same,Preemergence herbicidal rating TRZAWR,[3]; rate 0.2500 kg/ha,1.0
same,Preemergence herbicidal rating TRZAWR,[3]; rate 0.5000 kg/ha,3.0
same,Herbicidal rating SAGPY,[4]; 0.1250 kg/ha,0.0
same,Herbicidal rating SAGPY,[4]; 0.2500 kg/ha,0.0
same,Preemergence herbicidal rating ORYSAT,[5]; rate 0.0156 kg/ha,0.0
same,Preemergence herbicidal rating ORYSAT,[5]; rate 0.0313 kg/ha,0.0
same,Preemergence herbicidal rating ORYSAT,[5]; rate 0.0625 kg/ha,0.0
same,Preemergence herbicidal rating ORYSAT,[5]; rate 0.1250 kg/ha,0.0
same,Preemergence herbicidal rating ORYSAT,[5]; rate 0.2500 kg/ha,1.5
same,Preemergence herbicidal rating ORYSAT,[5]; rate 0.5000 kg/ha,4.0
same,Postemergence herbicidal rating CASOB,[6]; Rate 0.0158 kg/ha,0.0
same,Postemergence herbicidal rating CASOB,[6]; Rate 0.0313 kg/ha,0.0
same,Postemergence herbicidal rating CASOB,[6]; Rate 0.0625 kg/ha,0.0
same,Postemergence herbicidal rating CASOB,[6]; Rate 0.1250 kg/ha,3.0
same,Herbicidal rating CYPIR,[7]; 0.1250 kg/ha,0.0
same,Herbicidal rating CYPIR,[7]; 0.2500 kg/ha,0.0
same,Preemergence herbicidal rating GALAP,[8]; rate 0.0156 kg/ha,0.0
same,Preemergence herbicidal rating GALAP,[8]; rate 0.0313 kg/ha,0.0
same,Preemergence herbicidal rating GALAP,[8]; rate 0.0625 kg/ha,0.0
same,Preemergence herbicidal rating GALAP,[8]; rate 0.1250 kg/ha,0.5
same,Preemergence herbicidal rating GALAP,[8]; rate 0.2500 kg/ha,3.5
same,Preemergence herbicidal rating GALAP,[8]; rate 0.5000 kg/ha,7.0
same,Postemergence herbicidal rating ECHCG,[9]; Rate 0.0158 kg/ha,0.0
same,Postemergence herbicidal rating ECHCG,[9]; Rate 0.0313 kg/ha,0.0
same,Postemergence herbicidal rating ECHCG,[9]; Rate 0.0625 kg/ha,0.0
same,Postemergence herbicidal rating ECHCG,[9]; Rate 0.1250 kg/ha,2.0
same,Preemergence herbicidal rating GLXMAW,[10]; rate 0.0156 kg/ha,0.0
same,Preemergence herbicidal rating GLXMAW,[10]; rate 0.0313 kg/ha,0.5
same,Preemergence herbicidal rating GLXMAW,[10]; rate 0.0625 kg/ha,0.5
same,Preemergence herbicidal rating GLXMAW,[10]; rate 0.1250 kg/ha,0.5
same,Preemergence herbicidal rating GLXMAW,[10]; rate 0.2500 kg/ha,1.0
same,Preemergence herbicidal rating GLXMAW,[10]; rate 0.5000 kg/ha,3.0
same,Postemergence herbicidal rating ORYSAT,[11]; Rate 0.0158 kg/ha,1.0
same,Postemergence herbicidal rating ORYSAT,[11]; Rate 0.0313 kg/ha,2.0
same,Postemergence herbicidal rating ORYSAT,[11]; Rate 0.0625 kg/ha,3.0
same,Postemergence herbicidal rating ORYSAT,[11]; Rate 0.1250 kg/ha,3.5
same,Preemergence herbicidal rating ZEAMX,[12]; rate 0.0156 kg/ha,0.0
same,Preemergence herbicidal rating ZEAMX,[12]; rate 0.0313 kg/ha,0.0
same,Preemergence herbicidal rating ZEAMX,[12]; rate 0.0625 kg/ha,0.0
same,Preemergence herbicidal rating ZEAMX,[12]; rate 0.1250 kg/ha,0.5
same,Preemergence herbicidal rating ZEAMX,[12]; rate 0.2500 kg/ha,4.5
same,Preemergence herbicidal rating ZEAMX,[12]; rate 0.5000 kg/ha,6.0
same,Preemergence herbicidal rating SETVI,[13]; rate 0.0156 kg/ha,0.0
same,Preemergence herbicidal rating SETVI,[13]; rate 0.0313 kg/ha,0.0
same,Preemergence herbicidal rating SETVI,[13]; rate 0.0625 kg/ha,0.5
same,Preemergence herbicidal rating SETVI,[13]; rate 0.1250 kg/ha,3.5
same,Preemergence herbicidal rating SETVI,[13]; rate 0.2500 kg/ha,9.0
same,Preemergence herbicidal rating SETVI,[13]; rate 0.5000 kg/ha,9.0
